{"source": "paper PMC12284513", "about": "“Unique structural features define the decarboxylation activity of a CYP152 fatty acid decarboxylase from Lacicoccus alkaliphilus” (The Journal of Biological Chemistry, 2025)", "key": {"OleTJE L176I": {"tested_on": "OleTJE L176I", "test": "Fatty acid bioconversion with H2O2 as co-substrate (alkene by GC-MS, hydroxy products by HPLC-MS)", "type": "biochemical, Jeotgalicoccus sp. 8456", "details": "for Decarboxylation activity of OleTJE L176I compared to that of OleTJE wild type: 200 μM substrate, 400 μM H2O2", "experimental": "A reaction was typically quenched by adding 2-fold reaction volume of ethyl acetate which contained 30 μM of tetradecane as an internal standard. The reaction mixtures were vortexed for 1 min and then centrifuged at 12,000 rpm, 4 °C for 10 min to separate an organic and an aqueous phase. The organic phase was injected into an Agilent gas chromatography system (GC-MS) (Agilent 7890B equipped with Agilent 5977B MSD) equipped with a HP5-MS column (30 m × 0.25 mm × […]) (Agilent), and helium was used as a carrier gas. The oven conditions for C10FA and 1-nonene (C9 alkene) were ramped up from 60 to 240 °C with a rate of 19 ° C min^−1 and held at 240 °C for 1 min. […] For C18FA and 1-heptadecene (C17 alkene), the oven was ramped up from 60 to 250 °C with a rate of 22 °C min^−1 and hold at 250 °C for 4 min. For C20FA and 1-nonadecene (C19 alkene), the oven was ramped up from 100 to 250 °C with a rate of 23 °C min^−1 and held at 250 °C for 6 min. The response of target compounds was normalized with signals of the internal standard. The concentration of each compound was calculated based on a standard calibration curve.\nFor analyzing hydroxylated products of fatty acids, the reactions were quenched by adding an equal volume of acetonitrile, centrifuged, and filtrated. The analytes (10 μl) were injected into a liquid chromatography coupled with diode array and single quadrupole mass spectroscopy detection (LC-DAD/MS) (Agilent 1290 Infinity II LC System equipped with DAD, Single Quadrupole Mass Spectrometers system). A Zorbax eclipse plus C18 column (5 μm, 4.6 × 250 mm) (Agilent Technology) was used for separation. The mobile phase system A was water with 0.1% (v/v) formic acid, and system B was acetonitrile with 0.1% (v/v) formic acid.\nAll fatty acids were prepared in absolute EtOH at 20 mM as stock solutions. The reaction was carried out in 50 mM NaH2PO4 buffer with 300 mM NaCl, pH 7.5, with 2.5 or 10% (v/v) of EtOH, 200 μM of a substrate, and 400 μM of H2O2. The reactions were performed at 25 °C for 1 h, and then the alkene product was measured using GC-MS after the reactions were quenched and extracted with two-fold volume of ethyl acetate.\nSite-directed mutagenesis of I178L of OleTLA and […] of OleTJE was done with overlaping PCR that used OleTLA or OleTJE plasmids as templates (Table S4). The PCR products were treated with DpnI in cut smart buffer at 37 °C for 16 h, transformed into E. coli XL−1 blue competent cells and grown at 37 °C on LB agar containing 50 μg/ml ampicillin. The plasmids of selected colonies were extracted for sequence verification. The plasmid containing the correct sequence was transformed into E. coli BL21 (DE3) for enzyme expression. The expression and purification methods of variants were the same as those of wild-type OleTLA and OleTJE."}, "[1]": {"tested_on": "Escherichia coli BL21 (DE3) cells co-transformed with pGro7, FdR/FdX system, and OleTLA or OleTJE", "test": "In vivo bioconversion of C16FA with the FdR/FdX redox partner system", "type": "cell-based", "details": "128.22 mg/L of C16FA added, cells overexpressing OleTLA and OleTJE", "experimental": "The pRSFDuet−1 vector containing FdR/FdX and OleTLA or OleTJE was transformed into competent E. coli BL21 (DE3) containing a pGro7 plasmid. The transformed cells were incubated in LB broth at 37 °C, 220 rpm for 1.5 h, spread on LB agar with ampicillin (50 μg/ml), kanamycin (34 μg/ml), and chloramphenicol (20 μg/ml), and incubated at 37 °C for overnight. A single colony was inoculated into a starter culture in an auto-induction medium with appropriate antibiotics and 1% (w/v) of glucose. The culture was then incubated at 37 °C, 220 rpm overnight. Then, 1% (v/v) of the starter was inoculated into the auto-induction medium in the presence of ammonium iron (III) citrate (20 ug/ml), L-arabinose (2 mg/ml), ampicillin (50 μg/ml), kanamycin (34 μg/ml), and chloramphenicol (20 μg/ml), hemin (0.05 mM) and δ-ALA (0.5 mM) and then grown at 37 °C, 220 rpm until OD600 reached about 0.8 to 1.0. […] At a specific time point, the culture medium was sampled and extracted by adding two-fold ethyl acetate with tetradecane as an internal standard. The mixture was vortexed and centrifuged at 4 °C for 10 min. The organic phase was collected and injected into the GC-MS system."}, "[2]": {"test": "Thermofluor assay of enzyme melting temperature", "type": "physicochemical", "details": "reductase enzymes of the redox partner systems (Fig. S16)", "experimental": "The reactions containing 10 μM of enzyme, 25X of SYPRO Orange Protein Gel Stain solution in 25 μl of a storage buffer were carried out in a CFX96 Real-Time (Bio-Red) Thermal Cycle. The temperature of the experiments was raised from 30 to 80 °C at a continuous rate of 1 °C min^−1. The temperature at which half of the total amount of protein transitioned into an unfolded form is designated as the melting temperature."}}, "data": [{"molecule": "CCCCCCCCCC(=O)O", "note": "[C10FA, decanoic acid]", "values": [{"measurement": "Decarboxylation activity of OleTJE L176I compared to that of OleTJE wild type", "setting": "OleTJE L176I", "result": "less than 1%"}]}, {"molecule": "CCCCCCCCCCCC(=O)O", "note": "[C12FA, dodecanoic acid]", "values": [{"measurement": "Decarboxylation activity of OleTJE L176I compared to that of OleTJE wild type", "setting": "OleTJE L176I", "result": "less than 1%"}]}, {"molecule": "C=CCCCCCCCCCCCCC", "note": "[C15 alkene, 1-pentadecene]", "values": [{"measurement": "C15 alkene produced", "setting": "[1]; after 24 h", "result": 0.42, "unit": "mg/L"}, {"measurement": "C15 alkene produced", "setting": "[1]; after 48 h", "result": "around 1.26 mg/L"}]}, {"molecule": "CCCCCCCCCCCCCCCCCC(=O)O", "note": "[C18FA, octadecanoic acid]", "values": [{"measurement": "Decarboxylation activity of OleTJE L176I compared to that of OleTJE wild type", "setting": "OleTJE L176I", "result": "less than 5%"}]}, {"molecule": "CCCCCCCCCCCCCCCCCCCC(=O)O", "note": "[C20FA, icosanoic acid]", "values": [{"measurement": "Decarboxylation activity of OleTJE L176I compared to that of the wild-type enzyme", "setting": "OleTJE L176I; 2.5% (v/v) EtOH", "result": 37, "unit": "%"}, {"measurement": "Decarboxylation activity of OleTJE L176I compared to that of the wild-type enzyme", "setting": "OleTJE L176I; 10% (v/v) EtOH", "result": 23, "unit": "%"}]}, {"molecule": "FdR: ferredoxin reductase, redox partner, gene from Escherichia coli K-12 (protein, UniProt P28861 2-248, looked up) Flavodoxin/ferredoxin--NADP …: ADWVTGKVTKVQNWTDALFSLTVHAPVLPFTAGQFTKLGLEIDGERVQRAYSYVNSPDNPDLEFYLVTVPDGKLSPRLAALKPGDEVQVVSEAAGFFVLDEVPHCETLWMLATGTAIGPYLSILQLGKDLDRFKNLVLVHAARYAADLSYLPLMQELEKRYEGKLRIQTVVSRETAAGSLTGRIPALIESGELESTIGLPMNKETSHVMLCGNPQMVRDTQQLLKETRQMTKHLRRRPGHMTAEHYW", "values": [{"measurement": "Tm", "setting": "[2]", "result": 60, "unit": "°C"}]}, {"molecule": "CamA: putidaredoxin reductase, known redox partner, from Pseudomonas putida (protein, UniProt P16640 1-422, looked up) Putidaredoxin reductase CamA: MNANDNVVIVGTGLAGVEVAFGLRASGWEGNIRLVGDATVIPHHLPPLSKAYLAGKATAESLYLRTPDAYAAQNIQLLGGTQVTAINRDRQQVILSDGRALDYDRLVLATGGRPRPLPVASGAVGKANNFRYLRTLEDAECIRRQLIADNRLVVIGGGYIGLEVAATAIKANMHVTLLDTAARVLERVTAPPVSAFYEHLHREAGVDIRTGTQVCGFEMSTDQQKVTAVLCEDGTRLPADLVIAGIGLIPNCELASAAGLQVDNGIVINEHMQTSDPLIMAVGDCARFHSQLYDRWVRIESVPNALEQARKIAAILCGKVPRDEAAPWFWSDQYEIGLKMVGLSEGYDRIIVRGSLAQPDFSVFYLQGDRVLAVDTVNRPVEFNQSKQIITDRLPVEPNLLGDESVPLKEIIAAAKAELSSA", "values": [{"measurement": "Tm", "setting": "[2]", "result": 50, "unit": "°C"}]}]}
